Reference: ChEMBL document CHEMBL1129012, “Similarities and differences in the DNA binding/cleaving specificities and mechanisms of [SalenMn(III)]+ and [TMPPMn(III)]5+” (Bioorg Med Chem Lett, 1996)
Active and inactive are the calls of the source. No cut-off for these calls is given here.

Tested on: Nucleic Acid
Test: DNA binding/cleaving affinity was determined; Active
Assay type: nucleic-acid assay

Substance	Activity
[TMPPMn(III)] 5+ (TMPP=meso-tetrakis(4-N-methylpyridiniumyl)porphyrinato))	Active
Complex of [SalenMn(III)]+ (Salen=N,N'-ethylenebis(salicylideneaminato))	Active
